Reference: patent US20180036289A1 (Gilead Sciences, Inc., priority 2016, published 2018)

How the values were obtained:
COLO 829 = experiment: Cell proliferation assay (ATPlite), drug with vs without cobicistat; format: cell-based; details: COLO 829 cell line; 120 hours incubation
In short: (§1)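 Duplicate wells per concentration; nine 3.16-fold steps from 3.16×10^−5 M downward to 3.16×10^−9 M. Compound added on day 1 after seeding, then 120 h incubation and ATPlite luminescence. Four-parameter logistic fitting of %-growth versus untreated gave IC50.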

Jurkat E6.1 = experiment: as above; format: cell-based; details: Jurkat E6.1 cell line; 120 hours incubation
In short: as §1

LS 174T = experiment: as above; format: cell-based; details: LS 174T cell line; 120 hours incubation
In short: as §1

NCI-H460 = experiment: as above; format: cell-based; details: NCI-H460 cell line; 120 hours incubation
In short: as §1

RKO = experiment: as above; format: cell-based; details: RKO cell line; 120 hours incubation
In short: as §1

TT = TT cell line; 120 hours incubation
Protocol: (§2) All cell lines were obtained from the American Type Culture Collection (ATCC) Manassas, Va. (US). Master and working cell banks (MCB and WCB) were prepared by subculturing in ATCC-recommended media and freezing protocols (www.atcc.org). Cell line stocks for the assays were prepared from the WCB. The MCB, WCBs and assay stocks were prepared within respectively 3, 6 and 9 passages of the ATCC vial.
(§3) Solid powders of reference compounds were weighed on a calibrated balance and dissolved in 100% DMSO. DMSO samples were stored at room temperature. At the day of the experiment, the compound stock was diluted in 3.16 fold steps in 100% DMSO to obtain a 9-point dilution series. This was further diluted 31.6 times in 20 mM sterile Hepes buffer pH 7.4. A volume of 5 μl was transferred to the cells to generate a test concentration range from 3.16×10^−5M to 3.16×10^−9 M in duplicate. The final DMSO concentration during incubation was […] in all wells.
(§4) An assay stock was thawed and diluted in its ATCC recommended medium and dispensed in a 384-well plate, depending on the cell line used, at a concentration of 200-3200 cells per well in 45 μl medium. For each used cell line the optimal cell density is used. The margins of the plate were filled with phosphate-buffered saline. Plated cells were incubated in a humidified atmosphere of 5% CO2 at 37° C. After 24 hours, 5 μl of compound dilution was added and plates were further incubated for another 120 hours. After 120 hours, 25 μl of ATPlite 1Step™ (PerkinElmer) solution was added to each well, and subsequently shaken for 2 minutes. After 10 minutes of incubation in the dark, the luminescence was recorded on an Envision multimode reader (PerkinElmer).
(§5) IC50s were calculated by non-linear regression using IDBS XLfit 5. The percentage growth after 120 h (%-growth) was calculated as follows: 100%×(luminescencet=120h/luminescenceuntreated,t=120h). This was fitted to the ^10log compound concentration (conc) by a 4-parameter logistics curve: %−growth=bottom+(top−bottom)/(1+10^(log IC50-conc)*hill)), where hill is the Hill-coefficient, and bottom and top the asymptotic minimum and maximum cell growth that the compound allows in that assay.

cell lines tested = experiment: Cell proliferation assay, summary across all cell lines and drugs; format: cell-based; details: comparison among the six primary drugs
Protocol: as §2, §3, §4, §5

Structure (SMILES)	Fold change in IC50 (IC50 [Drug + Cobicistat]/IC50 [Drug]) (COLO 829)	Fold change in IC50 (IC50 [Drug + Cobicistat]/IC50 [Drug]) (Jurkat E6.1)	Fold change in IC50 (IC50 [Drug + Cobicistat]/IC50 [Drug]) (LS 174T)	Fold change in IC50 (IC50 [Drug + Cobicistat]/IC50 [Drug]) (NCI-H460)	Fold change in IC50 (IC50 [Drug + Cobicistat]/IC50 [Drug]) (RKO)	Fold change in IC50 (IC50 [Drug + Cobicistat]/IC50 [Drug]) (TT)	extent of boosting by cobicistat (cell lines tested)
CC(=O)O[C@@]12CO[C@@H]1C[C@H](O)[C@@]1(C)C(=O)[C@H](O)C3=C(C)[C@@H](OC(=O)[C@H](O)[C@@H](NC(=O)OC(C)(C)C)c4ccccc4)C[C@@](O)([C@@H](OC(=O)c4ccccc4)[C@H]21)C3(C)C [docetaxel]	3.7 fold	2.2 fold	2.8 fold	2.1 fold	3.8 fold	3.6 fold	boosted to the greatest extent
Cc1nc(Nc2ncc(C(=O)Nc3c(C)cccc3Cl)s2)cc(N2CCN(CCO)CC2)n1 [dasatinib]	–	–	–	–	–	0.8 fold	–
CC(=O)O[C@H]1C(=O)[C@@]2(C)[C@H]([C@H](OC(=O)c3ccccc3)[C@]3(O)C[C@H](OC(=O)[C@H](O)[C@@H](NC(=O)c4ccccc4)c4ccccc4)C(C)=C1C3(C)C)[C@]1(OC(C)=O)CO[C@@H]1C[C@@H]2O [paclitaxel]	4.1 fold	2.5 fold	1.8 fold	2.0 fold	3.3 fold	3.0 fold	–
CC[C@]1(O)C[C@H]2CN(CCc3c([nH]c4ccccc34)[C@@](C(=O)OC)(c3cc4c(cc3OC)N(C=O)[C@H]3[C@@](O)(C(=O)OC)[C@H](OC(C)=O)[C@]5(CC)C=CCN6CC[C@]43[C@@H]65)C2)C1 [vincristine]	4.4 fold	2.8 fold	2.5 fold	3.1 fold	3.7 fold	4.8 fold	boosted to the greatest extent
CC[C@]1(O)C[C@@H]2CN(CCc3c([nH]c4ccccc34)[C@@](C(=O)OC)(c3cc4c(cc3OC)N(C)[C@H]3[C@@](O)(C(=O)OC)[C@H](OC(C)=O)[C@]5(CC)C=CCN6CC[C@]43[C@@H]65)C2)C1 [vinblastine]	6.3 fold	2.5 fold	3.4 fold	3.4 fold	3.6 fold	8.7 fold	boosted to the greatest extent
COc1cccc2c1C(=O)c1c(O)c3c(c(O)c1C2=O)C[C@@](O)(C(=O)CO)C[C@@H]3O[C@H]1C[C@H](N)[C@H](O)[C@H](C)O1 [doxorubicin]	3.8 fold	2.5 fold	3.6 fold	2.0 fold	2.9 fold	1.1 fold	–
